The text below walks through data of patent US20230416225A1, “DIAMINOPYRIMIDINE CARBOXAMIDE INHIBITORS OF HPK1” (MERCK SHARP & DOHME LLC, priority 2020, published 2023).

Structures are written as SMILES.

The target in this test is T1, Human HPK1, catalytic domain (Homo sapiens, UniProt Q92918).
T1 construct: purchased Carna
T1 sequence (Q92918 1-346): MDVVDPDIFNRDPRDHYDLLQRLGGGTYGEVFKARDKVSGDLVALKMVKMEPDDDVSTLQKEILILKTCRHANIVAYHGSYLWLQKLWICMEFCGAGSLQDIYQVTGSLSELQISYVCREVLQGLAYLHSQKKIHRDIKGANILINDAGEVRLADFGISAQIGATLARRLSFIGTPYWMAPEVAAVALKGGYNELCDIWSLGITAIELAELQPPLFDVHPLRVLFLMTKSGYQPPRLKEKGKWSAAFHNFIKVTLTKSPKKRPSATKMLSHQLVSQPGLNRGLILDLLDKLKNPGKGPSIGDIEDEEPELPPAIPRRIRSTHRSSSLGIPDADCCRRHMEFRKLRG
The test is described as follows: HPK1-SLP76 TR-FRET assay. As to conditions: 75 pM HPK1, 10 uM ATP, 10 nM SLP76, 30 min compound pre-incubation. The test is classed as biochemical. For orientation: TR-FRET usually uses a lanthanide donor and a delayed reading to cut background.

On to `COc1cc2c(cc1Nc1ncc(C(N)=O)c(NC3CCc4c(F)ccc(F)c43)n1)CN(C)CC2` (stereo not shown) [Example 26-70, 4-[(4,7-difluoro-2,3-dihydro-1H-inden-1-yl)amino]-2-[(6-methoxy-2-methyl-1,2,3,4-tetrahydroisoquinolin-7-yl)amino]pyrimidine-5-carboxamide], for which the IC50 turned out to be 2.71 nM.

`C=CCCCN1CCc2cc(OC)c(Nc3ncc(C(N)=O)c(Nc4c(F)cc(Br)cc4F)n3)cc2C1` [Example 10-4, 4-(4-bromo-2,6-difluoroanilino)-2-{[6-methoxy-2-(pent-4-en-1-yl)-1,2,3,4-tetrahydroisoquinolin-7-yl]amino}pyrimidine-5-carboxamide] registered an IC50 of 67.1 nM.

For `COc1cc2c(cc1Nc1ncc(C(N)=O)c(Nc3c(O)cccc3F)n1)CN(C)CC2` [Example 4-17, 4-[(2-fluoro-6-hydroxyphenyl)amino]-2-[(6-methoxy-2-methyl-1,2,3,4-tetrahydroisoquinolin-7-yl)amino]pyrimidine-5-carboxamide], the IC50 came to 1.01 nM.

As to `CCn1cc(Cl)c(Nc2nc(Nc3cc4c(cc3OC)CCN(C)C4)ncc2C(N)=O)n1` [Example 7-87, 4-((4-chloro-1-ethyl-1H-pyrazol-3-yl)amino)-2-((6-methoxy-2-methyl-1,2,3,4-tetrahydroisoquinolin-7-yl)amino)pyrimidine-5-carboxamide], the IC50 is 4.78 nM.

`COc1cc2c(cc1Nc1ncc(C(N)=O)c(NC3CCCCC3)n1)CN(C)CC2` [Example 26-2, 4-(cyclohexylamino)-2-[(6-methoxy-2-methyl-1,2,3,4-tetrahydroisoquinolin-7-yl)amino]pyrimidine-5-carboxamide] had an IC50 of 0.6 nM.

The molecule `COc1cc2c(cc1Nc1ncc(C(N)=O)c(Nc3ccccc3C(F)(F)F)n1)CN(C)C(C)C2` (racemic) [Example 23-3, (RAC)-2-((6-methoxy-2,3-dimethyl-1,2,3,4-tetrahydroisoquinolin-7-yl)amino)-4-((2-(trifluoromethyl)phenyl)amino)pyrimidine-5-carboxamide] gave an IC50 of 0.28 nM.

`NC(=O)c1cnc(Nc2cccc3c2OCC3)nc1Nc1ccccc1Br` [Example 7-96, 4-[(2-bromophenyl)amino]-2-[(2,3-dihydro-1-benzofuran-7-yl)amino]pyrimidine-5-carboxamide] had an IC50 of 713 nM.

`COCCOCCOCC(=O)N1CCc2cc(OC)c(Nc3ncc(C(N)=O)c(Nc4ccccc4Br)n3)cc2C1` [Example 12-1, 4-[(2-bromophenyl)amino]-2-[(6-methoxy-2-{[2-(2-methoxyethoxy)ethoxy)accetyl}-1,2,3,4-tetrahydroisoquinolin-7-yl)amino]pyrimidine-5-carboxamide] came in with an IC50 of 117 nM.

On to `CC(N)c1cccc(Nc2nc(Nc3cc4c(cc3F)CCN(C)C4)ncc2C(N)=O)c1` (stereo not shown) [Example 2-7, 4-{[3-(1-aminoethyl)phenyl]-amino}-2-[(6-fluoro-2-methyl-1,2,3,4-tetrahydroisoquinolin-7-yl)amino]pyrimidine-5-carboxamide], for which the IC50 is 0.24 nM.

As to `COc1cc2c(cc1Nc1ncc(C(N)=O)c(NCc3ccccc3)n1)CN(C)CC2` [Example 26-36, 4-(benzylamino)-2-[(6-methoxy-2-methyl-1,2,3,4-tetrahydroisoquinolin-7-yl)amino]pyrimidine-5-carboxamide], it took 6.05 nM to reach half-maximal inhibition (IC50).

As to `Cn1ncc(Nc2ncc(C(N)=O)c(Nc3cccc4c3CCNC4=O)n2)c1C(F)(F)F` [Example 7-56, 2-{[1-methyl-5-(trifluoromethyl)-1H-pyrazol-4-yl]amino}-4-[(1-oxo-1,2,3,4-tetrahydroisoquinolin-5-yl)amino]pyrimidine-5-carboxamide], the IC50 amounted to 249 nM.

Turning to `NC(=O)c1cnc(Nc2cnn3c2OCCC3)nc1Nc1cccc2c1CCNC2=O` [Example 7-57, 2-[(6,7-dihydro-5H-pyrazolo[5,1-b][1,3]oxazin-3-yl)amino]-4-[(1-oxo-1,2,3,4-tetrahydroisoquinolin-5-yl)amino]pyrimidine-5-carboxamide], the IC50 was found to be 1.31 nM.

Regarding `CC(C)(C#N)c1cccc(Nc2ncc(C(N)=O)c(Nc3cccc4c3CCNC4=O)n2)c1` [Example 25-3, 2-{[3-(2-cyanopropan-2-yl)phenyl]amino}-4-[(1-oxo-1,2,3,4-tetrahydroisoquinolin-5-yl)amino]pyrimidine-5-carboxamide], the IC50 was found to be 1.14 nM.

Consider `COc1cc2c(cc1Nc1ncc(C(N)=O)c(Nc3ccccc3Br)n1)CN(S(C)(=O)=O)CC2` [Example 10-5, 4-[(2-bromophenyl)amino]-2-{[6-methoxy-2-(methylsulfonyl)-1,2,3,4-tetrahydroisoquinolin-7-yl]amino}pyrimidine-5-carboxamide], for which the IC50 came to 43.2 nM.

For the molecule `COc1ccc2c(c1)C(Nc1nc(Nc3cc4c(cc3OC)CCN(C)C4)ncc1C(N)=O)CC2` (stereo not shown) [Example 26-69, 4-[(6-methoxy-2,3-dihydro-1H-inden-1-yl)amino]-2-[(6-methoxy-2-methyl-1,2,3,4-tetrahydroisoquinolin-7-yl)amino]pyrimidine-5-carboxamide], the IC50 is 42.5 nM.

In turn, `COc1cc2c(cc1Nc1ncc(C(N)=O)c(NC3C4CC3C4)n1)CN(C)CC2` (stereo not shown) [Example 26-4, 4-[(bicyclo[1.1.1]pentan-2-yl)amino]-2-[(6-methoxy-2-methyl-1,2,3,4-tetrahydroisoquinolin-7-yl)amino]pyrimidine-5-carboxamide] returned an IC50 of 1.33 nM.

In the case of `COc1cc2c(cc1Nc1ncc(C(N)=O)c(Nc3ccccc3C3CCOCC3)n1)CN(C)CC2` [Example 13-13, 2-[(6-methoxy-2-methyl-1,2,3,4-tetrahydroisoquinolin-7-yl)amino]-4-{[2-(oxan-4-yl)phenyl]amino}pyrimidine-5-carboxamide], the midpoint of inhibition, the IC50, lay at 1.09 nM.

In turn, `COc1cc2c(cc1Nc1ncc(C(N)=O)c(Nc3ccccc3Br)n1)CN(C(C)C)CC2` [Example 9-8, 4-[(2-bromophenyl)amino]-2-{[6-methoxy-2-(propan-2-yl)-1,2,3,4-tetrahydroisoquinolin-7-yl]amino}pyrimidine-5-carboxamide] showed an IC50 of 16.4 nM.

Consider `COc1cc2c(cc1Nc1ncc(C(N)=O)c(NCc3ccc(C#N)cc3)n1)CN(C)CC2` [Example 26-59, 4-{[(4-cyanophenyl)methyl]amino}-2-[(6-methoxy-2-methyl-1,2,3,4-tetrahydroisoquinolin-7-yl)amino]pyrimidine-5-carboxamide], for which the IC50 was 48.3 nM.

As to `COc1cc2c(cc1Nc1ncc(C(N)=O)c(Nc3ccccc3Br)n1)CN(C1CC(CO)C1)CC2` (single isomer, unassigned) [Example 9-3, 4-((2-bromophenyl)amino)-2-((2-(3-(hydroxymethyl)cyclobutyl)-6-methoxy-1,2,3,4-tetrahydroisoquinolin-7-yl)amino)pyrimidine-5-carboxamide], the IC50 was found to be 0.33 nM.

On to `COc1cc2c(cc1Nc1ncc(C(N)=O)c(Nc3cccc(Cl)c3)n1)CN(C)CC2` [Example 7-25, 4-[(3-chlorophenyl)amino]-2-[(6-methoxy-2-methyl-1,2,3,4-tetrahydroisoquinolin-7-yl)amino]pyrimidine-5-carboxamide], for which 1.04 nM corresponded to half-maximal inhibition (IC50).

For the molecule `COc1cc2c(cc1Nc1ncc(C(N)=O)c(Nc3ccccc3C(O)(C(F)(F)F)C(F)(F)F)n1)CN(C)CC2` [Example 7-97, 4-{[2-(1,1,1,3,3,3-hexafluoro-2-hydroxypropan-2-yl)phenyl]amino}-2-[(6-methoxy-2-methyl-1,2,3,4-tetrahydroisoquinolin-7-yl)amino]pyrimidine-5-carboxamide], the IC50 worked out at 0.23 nM.

The term IC50 denotes the concentration that gives 50% inhibition.
